# Data from patent US7858790B2, “Modulators of muscarinic receptors” (Vertex Pharmaceuticals Incorporated, priority 2006, dated 2010).
# Tests used:
# M1 muscarinic receptor = target: T1, M1 muscarinic receptor (Homo sapiens, UniProt P11229); assay: Functional mobilization of intracellular calcium (FLIPR) in CHO cells expressing M1 muscarinic receptor; type: cell-based; conditions: for M1 Activity: CHO cells expressing M1, calcium mobilization; for Emax: CHO, 100% efficacy is the maximum response obtained with the Carbachol control
# T1 construct: expressed in transfected cells; host or cells: CHO (M1-CHO recombinant cell line)
# T1 sequence (P11229 1-460): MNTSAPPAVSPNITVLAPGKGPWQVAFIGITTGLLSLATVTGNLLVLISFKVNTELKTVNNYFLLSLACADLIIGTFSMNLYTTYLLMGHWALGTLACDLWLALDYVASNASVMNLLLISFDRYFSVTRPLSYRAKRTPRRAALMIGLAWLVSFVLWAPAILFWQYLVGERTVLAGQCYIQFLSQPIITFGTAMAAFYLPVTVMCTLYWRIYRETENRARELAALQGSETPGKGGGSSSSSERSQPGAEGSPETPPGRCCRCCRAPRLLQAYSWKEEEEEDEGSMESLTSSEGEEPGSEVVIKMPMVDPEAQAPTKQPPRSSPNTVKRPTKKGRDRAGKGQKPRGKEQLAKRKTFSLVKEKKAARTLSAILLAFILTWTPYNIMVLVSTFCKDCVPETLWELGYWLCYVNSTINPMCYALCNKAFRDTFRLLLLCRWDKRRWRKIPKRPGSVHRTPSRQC
# Method: (§1) VI. Assays for Detecting and Measuring Inhibition Properties of Compounds Functional Mobilization of Intracellular Calcium to Determine Muscarinic Receptor Activity:
# (§2) CHO cells expressing muscarinic receptors (M1 to M5) are grown as monolayers in tissue culture flasks at 37° C. in a humidified atmosphere containing 5% CO2 and passaged every 3-5 days. The growth media is Dulbecco's modified eagles medium (DMEM, Gibco Cat# 12430-054), containing 25 mM Hepes and supplemented with Fetal Bovine Serum (Hyclone, cat# SH30071.03), 0.1 mM of MEM non-essential amino acids (GIBCO, Cat# 11140-050), 1 mM MEM Sodium Pyruvate (GIBCO Cat# 11360-070) and 100 units/ml of Penicillin G and 100 μg/ml of Streptomycin (GIBCO Cat# 15140-122). The recombinant muscarinic receptor cell lines are grown under antibiotic pressure with media containing 25 μg/ml zeocin and 500 μg/ml G418 (M1-CHO), 4 μg/ml puromycin, 50 μg/ml zeocin and 2.5 μg/ml blasticidin (M2 and M4-CHO) or 50 μg/ml zeocin and 4 μg/ml puromycin (M3 and M5-CHO).
# (§3) Cells are harvested at 80-90% confluence using Versene (GIBCO Cat# 15040-066), collected by centrifugation and seeded 18-24 hours prior to running the calcium assay at a density of 5,000-10,000 cells/well in […], clear-bottomed 384-well plates (BD Biocoat, poly-D-lysine, Cat#356663). The day of the experiment, the cells are washed with a plate washer (Bioteck Instruments, ELX 405) using bath buffer (140-mM NaCl, 4.5-mM KCl, 2-mM CaCl2, 1-mM MgCl2, 10-mM Hepes-Na, 10-mM Glucose, pH 7.4, with NaOH) containing 1 mM Probenecid. Next, the calcium dye Fluo-3 (25 μl/well of Fluo-3 μM at 4 μM, Molecular Probes F-1241, in Bath 1 buffer containing 1 mM Probenecid) is added to the 25 μl of Bath 1 remaining in each well after the plate wash and the dye is loaded at 37° C. in the tissue culture incubator for 60-90 min. The fluorescent dye is removed using the plate washer with Bath 1 containing 1 mM Probenecid, leaving 25 μl/well of this solution after the wash. Alternatively, cells can be loaded with the calcium indicator from Molecular Devices (Calcium 3 Assay Reagents, Cat # R7181) adding 5 μl of a 5× solution dye in Bath 1 containing 1 mM Probenecid (10 ml per dye flask cat# R7182 to generate a solution 20×) to 20 μl of the same buffer. After loading for 60 min, the experiment can be run without having to remove the dye.
# (§4) Compounds are prepared at a 2× fold concentration in a 96-well plate (round bottom, Costar Corning cat# 3656), by reconstituting the pre-spotted compounds in bath 1 containing 1 mM probenecid. The final concentration DMSO is 0.5%, and the amount of DMSO is normalized across the assay plate. To determine an agonist action of the compounds on muscarinic receptors, the reconstituted compounds are added (25 μl compound/well) to the cell assay plate (containing 25 μl/well) using the multi-channel robotic system of the FLIPR 3 Instrument (Molecular Devices, Sunnyvale, Calif.). To determine a functional inhibitory-action of the compounds on muscarinic receptors, the reconstituted compounds are added (25 μl compound/well) to the assay plate and pre-incubated for 15 min prior to adding 25 μl of Carbachol at 3× the EC80 for each muscarinic subtype. Alternatively, the compounds can be co-applied simultaneously with the agonist. In both assay modes, the fluorescence is recorded for 60 sec (excitation wavelength is […] and emission wavelength 540 nm) using the FLIPR 3 instrument.
# (§5) The potency, efficacy and selectivity of the muscarinic compounds were evaluated by screening the compound activity across the whole family (M1 to M5 cells). Compounds were also screened for activity on other proteins such as other GPCRs and ion channels to determine selectivity on M4 receptors.
# (§6) Examples of activities and efficacies of the muscarinic compounds of formulae (I, Ia, and Ib) on modulating M1 and M4 receptors are shown below in Table 8. […]
# M4 muscarinic receptor = target: T2, M4 muscarinic receptor (Homo sapiens, UniProt P08173); assay: Functional mobilization of intracellular calcium (FLIPR) in CHO cells expressing M4 muscarinic receptor; type: cell-based; conditions: for M4 Activity: CHO cells expressing M4, calcium mobilization; for Emax: CHO, 100% efficacy is the maximum response obtained with the Carbachol control
# T2 construct: expressed in transfected cells; host or cells: CHO (M4-CHO recombinant cell line)
# T2 sequence (P08173 1-479): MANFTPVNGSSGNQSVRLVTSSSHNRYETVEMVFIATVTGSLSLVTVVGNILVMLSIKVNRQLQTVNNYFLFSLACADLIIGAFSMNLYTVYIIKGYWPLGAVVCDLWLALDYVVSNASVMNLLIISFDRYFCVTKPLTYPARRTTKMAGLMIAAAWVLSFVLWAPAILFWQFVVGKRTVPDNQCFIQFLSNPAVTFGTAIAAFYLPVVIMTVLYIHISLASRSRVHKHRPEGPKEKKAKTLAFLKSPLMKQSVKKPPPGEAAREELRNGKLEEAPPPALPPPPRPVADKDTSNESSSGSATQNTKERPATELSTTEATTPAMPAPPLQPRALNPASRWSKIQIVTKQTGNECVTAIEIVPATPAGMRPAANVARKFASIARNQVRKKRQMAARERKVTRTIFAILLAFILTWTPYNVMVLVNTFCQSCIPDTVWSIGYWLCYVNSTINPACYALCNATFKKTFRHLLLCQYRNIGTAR
# Method: as §1, §2, §3, §4, §5, §6
SMILES,M1 Activity (M1 muscarinic receptor),Emax (M1 muscarinic receptor) [%],M4 Activity (M4 muscarinic receptor),Emax (M4 muscarinic receptor) [%]
CC(C)(C)CCN1CCC2(CC=C(C(=O)N3CCCC3)c3ccccc32)CC1 [compound 11],++ (activity was measured to be from 2.0 μM to 10.0 μM),25 to 100,++ (activity was measured to be from 2.0 μM to 10.0 μM),< 25
CCC(CC)NC(=O)C1=CC2(CCN(CC3CC4C=CC3C4)CC2)c2ccccc21 (centres unmarked) [compound 30],+ (activity was measured to be greater than 10.0 μM),< 25,+++ (activity was measured to be less than 2.0 μM),25 to 100
CN(C)C(=O)C1=CCC2(CCN(CCC(C)(C)C)CC2)c2ccccc21 [compound 46],++ (activity was measured to be from 2.0 μM to 10.0 μM),25 to 100,+++ (activity was measured to be less than 2.0 μM),25 to 100
CCC(CC)NC(=O)C1=CC2(CCNCC2)c2ccccc21 [compound 57],+ (activity was measured to be greater than 10.0 μM),< 25,+ (activity was measured to be greater than 10.0 μM),< 25
CCC(CC)NC(=O)C1=CC2(CCN(CCC3CCOCC3)CC2)c2ccccc21 [compound 53],+ (activity was measured to be greater than 10.0 μM),< 25,+++ (activity was measured to be less than 2.0 μM),25 to 100
CCC(CC)NC(=O)C1=CC2(CCN(C3CCN(C(=O)N(C)C)CC3)CC2)c2ccccc21 [compound 33],+ (activity was measured to be greater than 10.0 μM),< 25,+ (activity was measured to be greater than 10.0 μM),< 25
CCC(CC)NC(=O)C1=CC2(CCN(C3CCN(C(=O)OC)CC3)CC2)c2ccccc21 [compound 71],+ (activity was measured to be greater than 10.0 μM),< 25,+++ (activity was measured to be less than 2.0 μM),25 to 100
CCN(CC)C(=O)C1=CC2(CCN(CCC(C)(C)C)CC2)c2ccccc21 [compound 26],+ (activity was measured to be greater than 10.0 μM),< 25,+ (activity was measured to be greater than 10.0 μM),< 25
CNC(=O)C1=CC2(CCN(CCC(C)CCCC(C)(C)OC)CC2)c2ccccc21 (centres unmarked) [compound 19],+ (activity was measured to be greater than 10.0 μM),25 to 100,+ (activity was measured to be greater than 10.0 μM),< 25
"CC(C)(C)CCN1CCC2(CC=C(C#N)c3ccccc32)CC1 [compound 51, 1′-(3,3-dimethylbutyl)-2H-spiro[naphthalene-1,4′-piperidine]-4-carbonitrile]",+++ (activity was measured to be less than 2.0 μM),25 to 100,+++ (activity was measured to be less than 2.0 μM),25 to 100
O=C(C1=CCC2(CCN(C3C[C@@H]4CC[C@@H]3C4)CC2)c2ccccc21)N1CCCC1 (some centres unmarked) [compound 29],+ (activity was measured to be greater than 10.0 μM),< 25,+ (activity was measured to be greater than 10.0 μM),< 25
"CCC(CC)NC(=O)C1=CC2(CCN(C3C[C@@H]4CC[C@@H]3C4)CC2)c2ccccc21 (stereo in doubt) [Compound No. 14, 1′-(bicyclo[2.2.1]heptan-2-yl)-N-(pentan-3-yl)spiro[indene-1,4′-piperidine]-3-carboxamide]",–,< 25,–,25 to 100
CC(C)(C)CCN1CCC2(C=C(C(=O)NC3CCCCC3)c3ccccc32)CC1 [compound 25],++ (activity was measured to be from 2.0 μM to 10.0 μM),25 to 100,+ (activity was measured to be greater than 10.0 μM),< 25
"CNC(=O)C1=CC2(CCN(CCC(C)(C)C)CC2)c2ccccc21 [Compound No. 27, 1′-(3,3-dimethylbutyl)-N-methylspiro[indene-1,4′-piperidine]-3-carboxamide]",+++ (activity was measured to be less than 2.0 μM),25 to 100,+++ (activity was measured to be less than 2.0 μM),25 to 100
CN(C)C(=O)C1=CC2(CCN(CC3CC4C=CC3C4)CC2)c2ccccc21 (centres unmarked) [compound 67],+ (activity was measured to be greater than 10.0 μM),25 to 100,+++ (activity was measured to be less than 2.0 μM),25 to 100
CC(C)NC(=O)C1=CC2(CCN(CCC(C)(C)C)CC2)c2ccccc21 [compound 70],+ (activity was measured to be greater than 10.0 μM),25 to 100,+ (activity was measured to be greater than 10.0 μM),25 to 100
"CC(C)(C)CCN1CCC2(C=C(C(=O)O)c3ccccc32)CC1 [Compound No. 20, 1′-(3,3-dimethylbutyl)spiro[indene-1,4′-piperidine]-3-carboxylic acid]",+ (activity was measured to be greater than 10.0 μM),< 25,+++ (activity was measured to be less than 2.0 μM),< 25
CNC(=O)C1=CC2(CCN(CCC3CCSCC3)CC2)c2ccccc21 [compound 9],+ (activity was measured to be greater than 10.0 μM),25 to 100,+ (activity was measured to be greater than 10.0 μM),< 25
CCC(CC)NC(=O)C1=CC2(CCN(C3CCNCC3)CC2)c2ccccc21 [compound 7],+ (activity was measured to be greater than 10.0 μM),< 25,+ (activity was measured to be greater than 10.0 μM),< 25
